These are literature values, as cited in patent US6355457B1, “Genes for the biosynthesis of epothilones” (Novartis AG, priority 1998, dated 2002).

Structures are written as SMILES.

The test system of the data set is human solid tumors. As to conditions: in vivo.

Take `CC(=O)O[C@H]1C(=O)[C@@]2(C)[C@H]([C@H](OC(=O)c3ccccc3)[C@]3(O)C[C@H](OC(=O)[C@H](O)[C@@H](NC(=O)c4ccccc4)c4ccccc4)C(C)=C1C3(C)C)[C@]1(OC(C)=O)CO[C@@H]1C[C@@H]2O` [Taxol]: the “activity against human solid tumors” value is listed as “significant activity against various human solid tumors”. In the case of `CC(=O)O[C@@]12CO[C@@H]1C[C@H](O)[C@@]1(C)C(=O)[C@H](O)C3=C(C)[C@@H](OC(=O)[C@H](O)[C@@H](NC(=O)OC(C)(C)C)c4ccccc4)C[C@@](O)([C@@H](OC(=O)c4ccccc4)[C@H]21)C3(C)C` [taxotere], the “activity against human solid tumors” value is “significant activity against various human solid tumors”.
